# Measurements taken from ChEMBL document CHEMBL2029226, “Molecular Insights into Human Monoamine Oxidase B Inhibition by the Glitazone Anti-Diabetes Drugs” (ACS Med Chem Lett, 2012).
# Calls of active or inactive are those of the source. The rule behind the calls is not given here.
# Assays:
# [1] = target: T1, Amine oxidase [flavin-containing] A (Homo sapiens, UniProt P21397); test: Inhibition of human MAOA expressed in Pichia pastoris at 100 uM
# T1 sequence (P21397 whole entry): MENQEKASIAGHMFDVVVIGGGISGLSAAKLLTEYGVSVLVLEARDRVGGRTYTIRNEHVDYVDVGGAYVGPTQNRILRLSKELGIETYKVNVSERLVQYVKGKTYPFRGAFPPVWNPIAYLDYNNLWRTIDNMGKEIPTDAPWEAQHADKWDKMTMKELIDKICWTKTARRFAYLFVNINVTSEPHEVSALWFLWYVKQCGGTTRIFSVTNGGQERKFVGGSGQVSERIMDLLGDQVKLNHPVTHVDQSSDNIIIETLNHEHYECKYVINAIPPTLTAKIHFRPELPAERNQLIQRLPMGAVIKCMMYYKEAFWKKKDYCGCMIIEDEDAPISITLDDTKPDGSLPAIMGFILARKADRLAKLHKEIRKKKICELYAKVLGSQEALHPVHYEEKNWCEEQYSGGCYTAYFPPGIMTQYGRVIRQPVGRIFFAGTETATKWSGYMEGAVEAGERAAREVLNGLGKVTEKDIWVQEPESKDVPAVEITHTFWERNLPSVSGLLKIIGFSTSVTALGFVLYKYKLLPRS
# [2] = target: Lysine-specific histone demethylase 1A (Homo sapiens) (UniProt O60341); test: Inhibition of human histone demethylase LSD1 up to 100 uM
# [3] = target: T2, Amine oxidase [flavin-containing] A (Rattus norvegicus, UniProt P21396); test: Inhibition of rat MAOA expressed in Pichia pastoris at 100 uM
# T2 sequence (P21396 whole entry): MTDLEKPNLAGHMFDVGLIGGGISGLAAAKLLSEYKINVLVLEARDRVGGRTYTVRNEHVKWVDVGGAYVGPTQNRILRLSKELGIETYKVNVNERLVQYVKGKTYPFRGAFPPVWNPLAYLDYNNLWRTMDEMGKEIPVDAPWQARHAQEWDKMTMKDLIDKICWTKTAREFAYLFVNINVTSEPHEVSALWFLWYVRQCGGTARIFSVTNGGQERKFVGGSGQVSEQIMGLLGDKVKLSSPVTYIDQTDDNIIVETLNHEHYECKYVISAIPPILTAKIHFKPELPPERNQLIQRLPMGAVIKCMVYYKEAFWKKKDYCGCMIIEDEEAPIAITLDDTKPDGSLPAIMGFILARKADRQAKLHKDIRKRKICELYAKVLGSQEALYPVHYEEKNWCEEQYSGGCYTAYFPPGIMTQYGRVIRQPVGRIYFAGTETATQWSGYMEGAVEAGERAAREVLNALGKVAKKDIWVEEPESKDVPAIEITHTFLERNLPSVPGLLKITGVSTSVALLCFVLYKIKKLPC
# [4] = target: T3, Amine oxidase [flavin-containing] B (Rattus norvegicus, UniProt P19643); test: Competitive inhibition of rat MAOB expressed in Pichia pastoris
# T3 sequence (P19643 whole entry): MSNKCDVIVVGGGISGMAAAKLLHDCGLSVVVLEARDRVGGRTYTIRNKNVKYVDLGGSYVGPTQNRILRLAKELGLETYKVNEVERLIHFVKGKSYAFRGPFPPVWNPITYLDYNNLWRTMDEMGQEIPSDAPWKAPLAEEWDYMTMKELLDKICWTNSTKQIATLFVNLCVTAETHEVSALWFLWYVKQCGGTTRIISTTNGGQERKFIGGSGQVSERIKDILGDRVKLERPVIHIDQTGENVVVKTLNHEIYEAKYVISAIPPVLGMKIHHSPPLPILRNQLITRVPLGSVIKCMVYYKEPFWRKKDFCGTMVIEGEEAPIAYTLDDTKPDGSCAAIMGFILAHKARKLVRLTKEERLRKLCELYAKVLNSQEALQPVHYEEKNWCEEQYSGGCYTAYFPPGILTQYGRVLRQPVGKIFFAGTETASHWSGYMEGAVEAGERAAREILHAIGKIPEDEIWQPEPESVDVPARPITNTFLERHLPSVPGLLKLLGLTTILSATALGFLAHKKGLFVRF
# [5] = target: T2, Amine oxidase [flavin-containing] A; test: Competitive inhibition of rat MAOA expressed in Pichia pastoris
# [6] = target: T4, Amine oxidase [flavin-containing] B (Homo sapiens, UniProt P27338); test: Competitive inhibition of human MAOB expressed in Pichia pastoris
# T4 sequence (P27338 whole entry): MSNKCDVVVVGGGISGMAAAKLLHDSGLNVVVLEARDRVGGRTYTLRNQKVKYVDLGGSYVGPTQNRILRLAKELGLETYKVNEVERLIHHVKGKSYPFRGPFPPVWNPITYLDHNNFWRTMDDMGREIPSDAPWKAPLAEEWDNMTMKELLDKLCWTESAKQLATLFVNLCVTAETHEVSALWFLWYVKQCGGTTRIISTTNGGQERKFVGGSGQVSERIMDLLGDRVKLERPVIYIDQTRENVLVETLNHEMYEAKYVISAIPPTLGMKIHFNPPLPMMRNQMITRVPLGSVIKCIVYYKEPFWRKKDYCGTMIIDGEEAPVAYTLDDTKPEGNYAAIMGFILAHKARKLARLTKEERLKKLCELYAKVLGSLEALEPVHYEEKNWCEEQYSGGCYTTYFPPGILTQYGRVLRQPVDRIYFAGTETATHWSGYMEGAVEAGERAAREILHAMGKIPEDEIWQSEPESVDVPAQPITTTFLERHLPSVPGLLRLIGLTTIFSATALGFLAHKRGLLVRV
# [7] = target: T1, Amine oxidase [flavin-containing] A; test: Competitive inhibition of human MAOA expressed in Pichia pastoris
# [8] = target: T4, Amine oxidase [flavin-containing] B; test: Uncompetitive inhibition of human MAOB expressed in Pichia pastoris
# [9] = target: T2, Amine oxidase [flavin-containing] A; test: Uncompetitive inhibition of rat MAOA expressed in Pichia pastoris
# [10] = target: T3, Amine oxidase [flavin-containing] B; test: Uncompetitive inhibition of rat MAOB expressed in Pichia pastoris
# [11] = target: T1, Amine oxidase [flavin-containing] A; test: Uncompetitive inhibition of human MAOA expressed in Pichia pastoris
inhibition (INH) [1],inhibition [2],inhibition (INH) [3],Ki [4] [µM],Ki [5] [µM],Ki [6] [µM],Ki [7] [µM],Ki [8] [µM],Ki [9] [µM],Ki [10] [µM],Ki [11] [µM],Structure (SMILES)
Not Active,inactive,Not Active,2.1,–,–,–,–,–,–,–,CCc1ccc(CCOc2ccc(CC3SC(=O)NC3=O)cc2)nc1 (racemic) [PIOGLITAZONE]
–,inactive,–,5.8,32.6,4.2,27.6,–,–,–,–,CN(CCOc1ccc(CC2SC(=O)NC2=O)cc1)c1ccccn1 (racemic) [ROSIGLITAZONE]
–,inactive,–,–,–,–,–,9.5,4.8,10.9,10.5,Cc1c(C)c2c(c(C)c1O)CCC(C)(COc1ccc(CC3SC(=O)NC3=O)cc1)O2 (centres undefined) [TROGLITAZONE]
